Assay results: US8632846B2, “Apparatus and methods for loading a drug eluting medical device” (Medtronic Vascular, Inc., priority 2010, dated 2014)

Assay: solubility of sirolimus in solvents / dispersion media
Assay type: physicochemical
Procedure: Solution 524 is a homogeneous mixture in which therapeutic substance 112 dissolves within a solvent or a solvent mixture. In one embodiment, solution 524 includes a high-capacity solvent 528 which is an organic solvent that has a high capacity to dissolve therapeutic substance 112. High capacity as utilized herein is defined as an ability to dissolve therapeutic substance 112 at concentrations greater than 500 mg of substance per milliliter of solvent. Examples of high capacity drug dissolving solvents for sirolimus and similar substances include but are not limited to tetrahydrofuran (THF), di-chloromethane (DCM), chloroform, and di-methyl-sulfoxide (DMSO). In addition to the high-capacity solvent, solution 524 may include an excipient 526 in order to assist in drug elution. In one embodiment, excipient 526 may be a surfactant such as but not limited to sorbitan fatty acid esters such as sorbitan monooleate and sorbitan monolaurate, polysorbates such as polysorbate 20, polysorbate 60, and polysorbate 80, cyclodextrins such as 2-hydroxypropyl-beta-cyclodextrin and 2,6-di-O-methyl-beta-cyclodextrin, sodium dodecyl sulfate, octyl glucoside, and low molecular weight poly(ethylene glycol)s. In another embodiment, excipient 526 may be a hydrophilic agent such as but not limited to salts such as sodium chloride and other materials such as urea, citric acid, and ascorbic acid. […]

CO[C@H]1C[C@@H]2CC[C@@H](C)[C@@](O)(O2)C(=O)C(=O)N2CCCC[C@H]2C(=O)O[C@H]([C@H](C)C[C@@H]2CC[C@@H](O)[C@H](OC)C2)CC(=O)[C@H](C)/C=C(\C)[C@@H](O)[C@@H](OC)C(=O)[C@H](C)C[C@H](C)/C=C/C=C/C=C/1C [sirolimus]
solubility in hexane (hexane): insoluble
solubility in water (water): insoluble
